{
  "source": "patent US20150224164A1",
  "about": "“TREATMENT OF AUTISM SPECTRUM DISORDERS USING GLYCYL-L-2-METHYLPROLYL-L-GLUMATIC ACID” (Neuren Pharmaceuticals Limited, priority 2013, published 2015)",
  "key": {"[1]": {"system": "adult MeCP2+/- mice", "test": "Ocular dominance plasticity, optical imaging (Example 10)", "type": "in vivo, mouse", "settings": "4 days monocular deprivation, daily i.p.", "description": "Adult (>P60) wild type (SVEV or BL6) and MeCP2 (+/−) mutant females (BL6) are used for this experiment. The wild type control group is composed of both wild type littermates of MeCP2+/− females or wild type age matched SVEV females. For monocular deprivation, animals are anesthetized with Avertin (0.016 ml/g) and the eyelids of one eye is sutured for 4 days. Prior to imaging, the suture is removed and the deprived eye re-opened. Only animals in which the deprivation sutures are intact and the condition of the deprived eye appears healthy are used for the imaging session. For G-2-MePE signaling activation, a solution containing G-2-MePE is injected intra-peritoneally (IP) daily for the entire period of deprivation. For the imaging sessions mice are anesthetized with urethane (1.5 g/kg; 20% of the full dosage is administered IP each 20-30 minutes up to the final dosage, 0.02 ml of cloroprothixene 1% is also injected together with the first administration). The skull is exposed and a custom-made plate is glued on the head to minimize movement. The skull is thinned over V1 with a dremel drill and covered with an agarose solution in saline (1.5%) and a glass coverslip. During the imaging session, the animal is constantly oxygenated, its temperature maintained with a heating blanket and the eyes periodically treated with silicone oil; physiological conditions are constantly monitored. […]"}, "[2]": {"system": "neurons in the CA3 region of the hippocampus", "test": "Neuron soma size in hippocampus CA3 (Example 10)", "type": "in vivo, mouse", "description": "We also measure the effect of G-2-MePE treatment on neuron soma size in the hippocampus. Mice are treated with G-2-MePE as described above for locomotor activity."}, "[3]": {"system": "subjects with an Autism Spectrum Disorder", "test": "Placebo-controlled crossover study in subjects with Autism Spectrum Disorder (Example 16)", "type": "in vivo, human", "from_the_text": "To determine whether G-2-MePE can treat symptoms of ASD, we carry out a study in human beings with ASD. Twenty subjects with an Autism Spectrum Disorder are recruited. Subjects are male and aged between 16 and 65 years (Mean=18.1 SD=3.4). All subjects have an IQ>60 and strict DSM-IV-TR diagnosis of Autistic Disorder or Asperger Disorder. Subjects also meet criteria for an Autism Spectrum Disorder according the ADI-R and ADOS-G instruments, and fulfill the proposed DSM-V criteria for and Autism Spectrum Disorder. Subjects are instructed that concomitant medications are to be stable for at least six weeks prior to study. Subjects receiving medication to treat signs of inattention are tested in the morning and instructed to take their medication in the afternoon. Subjects better treated with atypical anti-psychotic medications indicated for autism are excluded. Subjects are screened for known genetic disorders including and those with Fragile X Syndrome or tuberous sclerosis excluded. Subjects with uncontrolled epilepsy are excluded. The study is a double blind placebo-controlled crossover study with three phases. Subjects enter each phase of the crossover in a randomized order. In the test phases, subjects receive either placebo, 10 mg/kg T.I.D oral G-2-MePE for five days, or 30 mg/kg T.I.D. oral G-2-MePE. Each phase of the crossover is separated by a washout period of fourteen days. Subjects are tested at baseline using the following instruments: Wechsler IQ, Abberant Behavior Checklist Community Edition (ABC), […], Yale-Brown Obsessive Compulsive Scale (YBOCS) compulsion subscale, Social Responsiveness Scale (SRS), Clinical Global Impression of Severity (CGI-S) and their […] complete the Caregiver Strain Questionnaire (CSQ). Subjects are administered two tasks-the Reading the Mind in the Eyes Test-Revised (RMET) and an Eye Tracking (ET) task, as well as Clinical Global Impression of Improvement (CGI-I). Tasks commence two hours following administration of placebo or either dose of G-2-MePE. The RMET is a computer based task that assesses one's ability to read emotions from the eyes of subtle affective facial expressions and is a widely used test of emotion recognition in patients with autism (2001). Importantly, the RMET is capable of detecting improvement with even a single dose of a pharmacological agent (Guastella et al., 2010). Eye tracking issues are characteristic of patients with autism who spend less time looking at the eyes of photographs of human faces. Again, a single administration of a pharmacologic intervention can ameliorate eye tracking deficits in autism ([…] et al, 2010). Adverse events are also recorded using standard safety measures. Statistically, the effect of treatment with G-2-MePE is analysed by conducting a repeated analysis of covariance (ANCOVA) on the effect of treatment on change from baseline scores."}, "[4]": {"system": "fmr1 knockout mice", "test": "Successive alleys test, fmr1 knockout mice", "type": "in vivo, mouse", "settings": "100 mg/kg i.p. 28 days", "description": "G-2-MePE was administered at the dose of 100 mg/kg i.p. in 0.1 ml saline, once daily for 28 days. Vehicle-treated animals were injected with 0.1 ml saline daily for 28 days. Thereafter, drug or vehicle treatments were stopped and animals were tested on successive days until all tests were completed. Finally, the animals were sacrificed for determining expression of pAkt and pERK\nThe successive alleys test was used to assess the effects of G-2-MePE on anxiety in the fmr1 KO mice. The apparatus consists of four successive, increasingly anxiogenic, linearly connected alleys (each succeeding alley is painted a lighter colour, has lower walls and/or is narrower than the previous alley). Animals were placed at the closed end of alley 1, facing the end wall. The latency to first enter each alley, the amount of time spent in each alley, and the number of entries into each alley was recorded during a total test time of 300 s."}},
  "note": "“Also recorded” adds a separate entry of the source. Where a SMILES comes first, the peptide text is derived from it.",
  "data": [
    {"smiles": "C[C@@]1(C(=O)N[C@@H](CCC(=O)O)C(=O)O)CCCN1C(=O)CN", "note": "[Example G-2-MePE, Glycyl-L-2-methylprolyl-L-glutamic acid] (HELM PEPTIDE1{G.[C[C@@]1(C(=O)[*:2])CCCN1[*:1]].E}$$$$V2.0)", "values": [
      {"measurement": "ocular dominance plasticity", "setting": "[1]", "result": "reduces the OD plasticity"},
      {"measurement": "average soma size", "setting": "[2]; KO animals", "result": "increases average soma size"},
      {"measurement": "soma size", "setting": "[2]; wild type animals", "result": "little or no effect"},
      {"measurement": "percent correct responses on the RMET", "setting": "[3]; 30 mg/kg T.I.D. oral", "result": "increases the percent correct responses"},
      {"measurement": "Serious Adverse Events", "setting": "[3]; 10 or 30 mg/kg T.I.D. oral", "result": "No Serious Adverse Events"},
      {"measurement": "adverse events / tolerability", "setting": "[3]; 10 or 30 mg/kg T.I.D. oral", "result": "no more adverse events than were present during treatment with placebo; also recorded: well tolerated"},
      {"measurement": "performance of the RMET test, overall", "setting": "[3]; human, in vivo", "result": "significant overall improvement"},
      {"measurement": "time spent looking at the eye region in the ET test", "setting": "[3]; human, in vivo", "result": "significant overall improvement"},
      {"measurement": "pattern of time spent in successive alleys", "setting": "[4]", "result": "reinstated the normal pattern of behavior"}
    ]}
  ]
}
